Experimental findings from patent US7494976B2, “Caveolin peptides and their use as therapeutics” (Yale University, priority 2000, dated 2009) are described below.

“Also recorded” adds a separate entry of the source. Ends that are not written are not given here. Peptide text beside a SMILES is read from it.

One series deals with mouse aorta. Put plainly: Uptake of biotinylated peptides into the vessel wall of mouse aorta. Particulars: biotinylated peptides 100 μM, twenty hours, HRP staining. Here is the method:
The uptake of AP-Cav into the vessel wall was examined next. A biotinylated version of AP-Cav and AP-Cav-X was synthesized. After twenty hours of incubation with the biotinylated peptides (100 μM) or vehicle, rings were placed in a dish and washed twice with PBS (twenty minutes each time) with light shaking, in order to eliminate the excess of biopeptide that could deposit over the tissue. Then the rings were embedded in OCT medium and cross sections ([…] thickness) were obtained for staining with an avidin-horseradish peroxidase complex and reactivity was detected with 3-amino-9-ethylcarbazole (AEC).

In another series the test system is prostacyclin production. Put plainly: Prostacyclin release from mouse aortic rings (6-keto-PGF1α by EIA). The following applies: ibuprofen 10 μM. The protocol:
To further test the specificity of AP-Cav, Ach-induced prostacyclin production was measured. For measurement of prostacyclin release, after twenty hour incubation period, aortic segments (4-5 mm) were placed in sterile 48-well tissue culture plates with 300 μl of KHS at 37° C. for thirty minutes in an incubator. Then aliquots of […] were taken in order to measure the basal release of prostacyclin. Ach (1 μM) was added and the plate was kept in the incubator for an additional thirty minutes. Aliquots were then taken in order to measure the Ach-stimulated release of prostacyclin. This protocol was performed in absence or in presence of ibuprofen (10 μM). The aliquots were frozen and prostacyclin release was measured as the stable breakdown product, 6-keto-PGF1α, by EIA (Amersham).

Series [1] in a line: Systemic arterial blood pressure and heart rate in mice. It is filed as in vivo, mouse.
In a further series the test system is isolated mouse aorta. Put plainly: Ach-induced relaxation of isolated mouse aortic rings (organ bath). The following applies: AP alone 30 μM, twenty hours incubation. Here is the method:
For isolated mouse aortic rings preparations, male C57 black mice (5-7 weeks of age) were anesthetized with methoxyflurane and sacrificed by exsanguination. The thoracic aorta was dissected and cut into cylindrical segments of three millimeters in length. Using a sterile 48-well tissue culture plate, each ring was incubated in a total volume of one ml with either peptides or vehicle (DMSO) diluted in DMEM supplemented with penicillin (100 units/ml), streptomycin (100 μg/ml) and L-glutamine (1 mM). The plate was incubated with 5% CO2. Following incubation with the peptides (one, six, twelve or twenty hours), rings were washed in oxygenated (95% O2-5% CO2) Krebs-Henseleit bicarbonate buffer solution (KHS) of the following composition (NaCl—118.3 mmol/L, KCl—4.7 mmol/L, CaCl2—2.5 mmol/L, MgSO4—1.2 mmol/L, KH2PO4—1.2 mmol/L, NaHCO3—25 mmol/L, glucose—5.6 mmol/L at 37° C. with ibuprofen (10 μM). The rings were suspended by two tungsten wires ([…] thickness) inserted into the lumen and mounted in a vessel myograph system (five ml chamber, Kent Scientific). The mouse aortas were submitted to a resting tension of 1.5 grams and isometric tension was recorded using a force transducer coupled to a MacLab data acquisition system. […] In some experiments concentration-response curves to the contractile effects of PE were monitored.

In a further series the test system is isolated mouse aortas. Put plainly: Sodium nitroprusside induced (endothelium independent) relaxation of mouse aorta. The following applies: AP 30 μM, twenty hours; SNP 10 μM.
Where [2] appears, read: conditions of the edema study, n=4 mice.

For the compound `CC[C@H](C)[C@H](NC(=O)CNC(=O)[C@H](Cc1c[nH]c2ccccc12)NC(=O)[C@H](CCCCN)NC(=O)[C@H](CCCCN)NC(=O)[C@H](Cc1c[nH]c2ccccc12)NC(=O)[C@H](CCCCN)NC(=O)[C@H](CCSC)NC(=O)[C@H](CCCNC(=N)N)NC(=O)[C@H](CCCNC(=N)N)NC(=O)[C@H](CC(N)=O)NC(=O)[C@H](CCC(N)=O)NC(=O)[C@H](Cc1ccccc1)NC(=O)[C@H](Cc1c[nH]c2ccccc12)NC(=O)[C@@H](NC(=O)[C@H](CCCCN)NC(=O)[C@@H](NC(=O)[C@H](CCC(N)=O)NC(=O)[C@H](CCCNC(=N)N)NC(=O)CCCCCNC(=O)CCCC[C@@H]1SC[C@@H]2NC(=O)N[C@@H]21)[C@@H](C)CC)[C@@H](C)CC)C(=O)N[C@@H](CC(=O)O)C(=O)N[C@@H](CCCCN)C(=O)N[C@@H](C)C(=O)N[C@@H](Cc1ccccc1)C(=O)N[C@@H](Cc1ccccc1)C(=O)N[C@H](C(=O)N[C@H](C(=O)N[C@@H](CO)C(=O)N[C@H](C(=O)N[C@H](C(=O)N[C@H](C(=O)N[C@@H](Cc1ccc(O)cc1)C(=O)N[C@@H](CCCCN)C(=O)N[C@@H](Cc1c[nH]c2ccccc12)C(=O)N[C@@H](Cc1ccccc1)C(=O)N[C@@H](CCCNC(=N)N)C(=O)N[C@@H](Cc1ccc(O)cc1)C(=O)O)[C@@H](C)O)C(C)C)[C@@H](C)O)[C@@H](C)O)[C@@H](C)O` [Biot-AP-Cav-X] (HELM PEPTIDE1{[O=C1N[C@H]2[C@H](CS[C@H]2CCCCC(=O)[*:2])N1].[O=C(CCCCCN[*:1])[*:2]].R.Q.I.K.I.W.F.Q.N.R.R.M.K.W.K.K.W.G.I.D.K.A.F.F.T.T.S.T.V.T.Y.K.W.F.R.Y}$$$$V2.0; N-terminus and C-terminus assumed), the “uptake into the vessel wall” value with mouse aorta was “uptake of both AP-Cav and AP-Cav-X into the endothelium and adventitial lining of the vessel”.

For the compound `CC(C)Cc1ccc(C(C)C(=O)O)cc1` (centres unmarked) [ibuprofen], in the series with prostacyclin production, the “Ach-induced prostacyclin production (6-keto-PGF1α)” value is on record as “abolished”. For the compound “RQIKIWFQNRRMKWKKDGIWKASFTTFTVTKYWFYR [AP-Cav]”, in series [1] (setting [2]), the heart rate is 320±29 beats per minute and the “systemic arterial blood pressure” value stood at 80±7 mm Hg. Further, the “effect on blood pressure when delivered in vivo” value in series [1] (preliminary evidence) is “do not increase blood pressure”. In the case of “AP: Antennapedia internalization sequence (RQIKIWFQNRRMKWKK), SEQ ID NO: 10, alone (Drosophila melanogaster; DOMAIN (1)..(16) Homeodomain, internalization sequence)”, the “effect on Ach-induced relaxation” value with isolated mouse aorta is on record as “did not influence Ach-induced relaxation; also recorded: does not affect Ach induced relaxations”. In addition, the “effect on vasorelaxant properties of sodium nitroprusside” value with isolated mouse aortas is “had no effect”.

As to `CC[C@H](C)[C@H](NC(=O)CNC(=O)[C@H](CC(=O)O)NC(=O)[C@H](CCCCN)NC(=O)[C@H](CCCCN)NC(=O)[C@H](Cc1c[nH]c2ccccc12)NC(=O)[C@H](CCCCN)NC(=O)[C@H](CCSC)NC(=O)[C@H](CCCNC(=N)N)NC(=O)[C@H](CCCNC(=N)N)NC(=O)[C@H](CC(N)=O)NC(=O)[C@H](CCC(N)=O)NC(=O)[C@H](Cc1ccccc1)NC(=O)[C@H](Cc1c[nH]c2ccccc12)NC(=O)[C@@H](NC(=O)[C@H](CCCCN)NC(=O)[C@@H](NC(=O)[C@H](CCC(N)=O)NC(=O)[C@H](CCCNC(=N)N)NC(=O)CCCCCNC(=O)CCCC[C@@H]1SC[C@@H]2NC(=O)N[C@@H]21)[C@@H](C)CC)[C@@H](C)CC)C(=O)N[C@@H](Cc1c[nH]c2ccccc12)C(=O)N[C@@H](CCCCN)C(=O)N[C@@H](C)C(=O)N[C@@H](CO)C(=O)N[C@@H](Cc1ccccc1)C(=O)N[C@H](C(=O)N[C@H](C(=O)N[C@@H](Cc1ccccc1)C(=O)N[C@H](C(=O)N[C@H](C(=O)N[C@H](C(=O)N[C@@H](CCCCN)C(=O)N[C@@H](Cc1ccc(O)cc1)C(=O)N[C@@H](Cc1c[nH]c2ccccc12)C(=O)N[C@@H](Cc1ccccc1)C(=O)N[C@@H](Cc1ccc(O)cc1)C(=O)N[C@@H](CCCNC(=N)N)C(=O)O)[C@@H](C)O)C(C)C)[C@@H](C)O)[C@@H](C)O)[C@@H](C)O` [Biot-AP-Cav] (HELM PEPTIDE1{[O=C1N[C@H]2[C@H](CS[C@H]2CCCCC(=O)[*:2])N1].[O=C(CCCCCN[*:1])[*:2]].R.Q.I.K.I.W.F.Q.N.R.R.M.K.W.K.K.D.G.I.W.K.A.S.F.T.T.F.T.V.T.K.Y.W.F.Y.R}$$$$V2.0; N-terminus and C-terminus assumed), in the series on mouse aorta, the “uptake into the vessel wall” value was “uptake of both AP-Cav and AP-Cav-X into the endothelium and adventitial lining of the vessel”.
